# From US20150258108A1 (priority 2014, published 2015)
# Where “and” joins values, the source holds several entries; their conditions need not be identical. Identical values can stand only once. Like-named read-outs stand apart in the source and are kept apart here. Marks after values point to notes of the source that are not given here.
# Columns and labels:
# [1] = tested on: human OPRK (κ-opioid receptor); assay: biochemical; assay type: binding
# [2] = target: T1, human OPRM (μ-opioid receptor) (Homo sapiens, UniProt P35372); conditions: cited from earlier work
# T1 sequence (P35372 whole entry): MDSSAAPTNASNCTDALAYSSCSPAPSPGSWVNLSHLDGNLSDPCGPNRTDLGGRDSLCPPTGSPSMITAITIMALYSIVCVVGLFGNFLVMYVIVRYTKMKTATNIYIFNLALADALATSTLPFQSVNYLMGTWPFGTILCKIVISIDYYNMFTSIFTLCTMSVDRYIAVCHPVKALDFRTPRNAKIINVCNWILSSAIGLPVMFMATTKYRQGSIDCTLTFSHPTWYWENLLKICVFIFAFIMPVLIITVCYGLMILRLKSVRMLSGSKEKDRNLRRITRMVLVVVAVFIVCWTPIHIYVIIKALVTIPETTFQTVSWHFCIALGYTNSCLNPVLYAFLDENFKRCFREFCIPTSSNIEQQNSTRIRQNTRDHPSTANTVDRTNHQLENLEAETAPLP
# human OPRM [3] = target: T2, human OPRM (Homo sapiens, UniProt P35372); parameters: expressed in transfected cells; host or cells: CHO-K1 (cell lines provided by Dr. Toll, Torrey Pines Institute); conditions: cited from earlier work
# T2 sequence (P35372 whole entry): as above
# [4] = target: T3, human OPRK (κ-opioid receptor) (Homo sapiens, UniProt P41145); assay: biochemical; assay type: binding; conditions: for Ki: read-out: Ki
# T3 construct: purchased PerkinElmer Life Sciences (Boston, Mass.)
# T3 sequence (P41145 whole entry): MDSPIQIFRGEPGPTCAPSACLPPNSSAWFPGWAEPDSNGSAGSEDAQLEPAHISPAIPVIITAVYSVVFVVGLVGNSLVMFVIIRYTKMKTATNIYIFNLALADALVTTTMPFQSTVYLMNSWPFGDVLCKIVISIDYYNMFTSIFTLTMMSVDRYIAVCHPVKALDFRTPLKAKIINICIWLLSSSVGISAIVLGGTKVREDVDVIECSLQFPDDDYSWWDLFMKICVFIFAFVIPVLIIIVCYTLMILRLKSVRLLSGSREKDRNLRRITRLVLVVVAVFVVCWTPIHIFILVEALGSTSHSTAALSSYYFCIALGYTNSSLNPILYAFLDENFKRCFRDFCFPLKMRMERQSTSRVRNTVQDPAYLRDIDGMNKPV
# calf OPRM = calf OPRM (Bos taurus, UniProt P79350); conditions: calf receptor, literature, cited from earlier work
# calf OPRM, sequence (P79350 whole entry): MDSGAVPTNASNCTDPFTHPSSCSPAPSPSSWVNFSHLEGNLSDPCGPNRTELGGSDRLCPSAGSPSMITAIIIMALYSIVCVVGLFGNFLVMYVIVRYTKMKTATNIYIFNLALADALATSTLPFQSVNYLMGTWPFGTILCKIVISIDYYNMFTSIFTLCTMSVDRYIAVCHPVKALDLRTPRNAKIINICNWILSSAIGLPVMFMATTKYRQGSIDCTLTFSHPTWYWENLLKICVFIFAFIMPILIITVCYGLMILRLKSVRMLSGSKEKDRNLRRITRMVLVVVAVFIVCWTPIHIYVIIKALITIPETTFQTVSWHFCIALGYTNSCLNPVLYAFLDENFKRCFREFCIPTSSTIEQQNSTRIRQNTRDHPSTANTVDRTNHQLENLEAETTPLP
# calf OPRK = calf OPRK (Bos taurus, UniProt Q2KIP6); conditions: calf receptor, literature; cited from earlier work
# calf OPRK, sequence (Q2KIP6 whole entry): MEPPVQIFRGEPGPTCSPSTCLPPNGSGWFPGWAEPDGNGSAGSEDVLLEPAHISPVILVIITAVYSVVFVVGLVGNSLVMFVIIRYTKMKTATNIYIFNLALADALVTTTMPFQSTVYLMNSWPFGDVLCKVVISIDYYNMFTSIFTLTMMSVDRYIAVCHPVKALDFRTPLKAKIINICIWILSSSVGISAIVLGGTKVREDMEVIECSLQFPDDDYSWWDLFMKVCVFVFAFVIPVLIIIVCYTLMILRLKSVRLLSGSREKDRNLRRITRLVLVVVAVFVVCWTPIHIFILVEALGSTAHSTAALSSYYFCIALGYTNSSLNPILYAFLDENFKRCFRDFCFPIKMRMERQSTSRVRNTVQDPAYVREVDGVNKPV
# OPRK [5] = target: T4, OPRK (Homo sapiens, UniProt P41145); assay: biochemical; parameters: purchased PerkinElmer Life Sciences (Boston, Mass.)
# T4 sequence (P41145 whole entry): as the sequence (P41145 whole entry) above
# [6] = target: T1, human OPRM (μ-opioid receptor); assay: biochemical; assay type: binding; parameters: expressed in transfected cells; host or cells: CHO-K1 (cell lines provided by Dr. Toll, Torrey Pines Institute)
# human OPRM [7] = target: T2, human OPRM; assay: biochemical; assay type: biochemical; parameters: expressed in transfected cells; host or cells: CHO-K1 (cell lines provided by Dr. Toll, Torrey Pines Institute)
# [8] = target: OPRD: opioid receptor delta (Bos taurus, UniProt F1N083); conditions: literature (Pearl, Herrick-Davis et al. 1995); cited from earlier work
# OPRD: opioid receptor delta, sequence (F1N083 1-372): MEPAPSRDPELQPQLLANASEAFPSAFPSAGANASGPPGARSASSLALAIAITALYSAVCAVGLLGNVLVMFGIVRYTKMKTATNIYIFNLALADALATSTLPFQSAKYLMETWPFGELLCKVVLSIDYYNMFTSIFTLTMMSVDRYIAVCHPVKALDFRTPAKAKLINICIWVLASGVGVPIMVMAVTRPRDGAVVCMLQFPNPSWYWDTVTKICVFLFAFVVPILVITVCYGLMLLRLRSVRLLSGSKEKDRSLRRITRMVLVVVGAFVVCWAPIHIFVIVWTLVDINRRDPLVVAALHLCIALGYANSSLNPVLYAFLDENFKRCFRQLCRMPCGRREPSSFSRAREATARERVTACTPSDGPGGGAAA
# OPRK [9] = target: T4, OPRK; assay: cell-based; parameters: host or cells: CHO-K1; conditions: OPRK, inhibitory component; pKi-pKe
# [10] = Ascending single-dose pharmacokinetics of noribogaine in healthy volunteers; conditions: for Cmax / Tmax / AUC0-216 / AUC0-∞ / t1/2: fasted healthy males, mean (SD), n = 6
# human OPRM [11] = target: T2, human OPRM; assay: cell-based; assay type: cell-based; parameters: host or cells: CHO-K1
# [12] = OPRK, [3H]-U69,593 binding, This work
# [13] = 30 mg noribogaine single oral dose
# [14] = 30 mg noribogaine single oral dose, plasma
# [15] = 60 mg noribogaine single oral dose
# [16] = 60 mg noribogaine single oral dose, plasma
compound,measurement,setting,value
NC(N)=Nc1ccc2c3c([nH]c2c1)[C@@H]1Oc2c(O)ccc4c2[C@@]12CCN(CC1CC1)[C@H](C4)[C@]2(O)C3 [6′GNTI],Specificity ΔpKi,[1]; ΔpKi = pKi(OPRK)-pKi(OPRM),1.84
same,Ki,[2],82 nM
same,pKi,[2],7.1
same,EC50,"human OPRM [3]; OPRM, activation, literature",> 1000 nM
same,Efficacy,"human OPRM [3]; OPRM, activation, literature",0~ %
"COCC[C@H]1CC2CN3CCc4c([nH]c5ccccc45)[C@](C(=O)OC)(C2)[C@H]13 [18-MC, 18-methoxycoronaridine]",pKi,[4]; [12],5.7*
same,Ki,[4]; [12],1800 nM
same,Ki,"[4]; human OPRK, [3H]-U69,593",1840 ± 120 nM
same,affinity at human OPRK versus OPRM,[1]; this work,equi-affine
same,Ki,calf OPRM; read-out: Ki,1100 nM
same,pKi,calf OPRM,6.0*
same,Ki,calf OPRK,5100 nM
same,pKi,calf OPRK,5.3*
same,reported selectivity at OPRM,[2],5 ×
same,Efficacy (Emax),OPRK [5],<5%
same,pEC50,OPRK [5],4.8
same,"pEC50, (Ke): pKe",OPRK [5],5.3
same,stimulation of [35S]GTPγS binding to OPRK,OPRK [5],failed to stimulate
same,EC50,OPRK [5]; read-out: EC50,~16000 nM
same,pKi,[6],5.6*
same,Ki,[6]; read-out: Ki,2260 nM and 2360 nM
same,Efficacy (Emax),human OPRM [7],<5%
same,stimulation of the OPRM G-protein pathway,human OPRM [7],failed to stimulate
"C[C@@H](NC(=O)[C@@H](N)Cc1ccc(O)cc1)C(=O)NCC(=O)N(C)[C@@H](Cc1ccccc1)C(=O)NCCO [DAMGO, [D-Ala2, NMe-Phe4, Gly-ol5]-enkephalin]",Specificity ΔpKi,[1]; ΔpKi = pKi(OPRK)-pKi(OPRM),<−3
"CC[C@H]1CC2C[C@H]3c4[nH]c5ccc(OC)cc5c4CCN(C2)C13 [Ibogaine, reference compound]",Ki,calf OPRM,11000 nM
same,pKi,calf OPRM,5.0*
same,Ki at OPRD,[8],N.Q.)
same,Ki,[6],6920 ± 830 nM
same,stimulation of the OPRM G-protein pathway,human OPRM [7],failed to stimulate
same,Emax,human OPRM [7]; read-out: Efficacy (Emax),-2.9%
"C=C1CC[C@@]2(O)[C@H]3Cc4ccc(O)c5c4[C@@]2(CCN3CC2CC2)[C@H]1O5 [Nalmefene, reference compound]",Specificity ΔpKi,[1]; ΔpKi = pKi(OPRK)-pKi(OPRM),1.1
"Oc1ccc2c3c1O[C@H]1c4[nH]c5c(c4C[C@@]4(O)[C@@H](C2)N(CC2CC2)CC[C@]314)C[C@@]1(O)[C@H]2Cc3ccc(O)c4c3[C@@]1(CCN2CC1CC1)[C@H]5O4 [NorBNI, nor-binaltorphimine, reference compound]",Specificity ΔpKi,[1]; ΔpKi = pKi(OPRK)-pKi(OPRM),2.0
same,e-coupling,OPRK [9],0.27
CC[C@H]1C[C@@H]2C[C@H]3c4[nH]c5ccc(OC6OC(C(=O)O)C(O)C(O)C6O)cc5c4CCN(C2)[C@@H]13 (stereo partly shown) [Noribogaine glucuronide],Cmax,[10]; [13],1.8 (0.6) ng/ml
same,Tmax,[10]; [13],3.0 (0.6) hr
same,AUC0-216,[10]; [14],25.7 (9.1) ng · hr/ml
same,AUC0-∞,[10]; [14],25.8 (9.3) ng · hr/ml
same,t1/2,[10]; [14],20.6 (4.9) hr
same,Cmax,[10]; [15],4.1 (1.2) ng/ml
same,Tmax,[10]; [15],3.8 (1.2) hr
same,AUC0-216,[10]; [16],65.0 (21.5) ng · hr/ml
same,AUC0-∞,[10]; [16],67.1 (21.9) ng · hr/ml
same,t1/2,[10]; [16],23.1 (3.0) hr
same,time of peak concentrations after oral noribogaine dosing,"[10]; across dose groups, healthy volunteers",3 to 4 h
same,Mean half-life,"[10]; across dose groups, healthy volunteers, plasma",21 to 23 h
same,proportion of noribogaine glucuronide Cmax and AUC relative to noribogaine,"[10]; both dose groups (30 mg, 60 mg)",3-4%
same,time by which detected in all subjects,"[10]; plasma, 30 mg and 60 mg noribogaine dose groups",≤ 0.75 h
[Met]-Enkephalin [reference compound],Specificity ΔpKi,[1],<−3
same,Efficacy,human OPRM [11],100%
same,e-coupling,human OPRM [11],1.94
same,e-coupling,human OPRM [7],1.8
same,Efficacy,human OPRM [3],~95%
